# Assay results from US20120064056A1, “DICHLORACETATE IN COMBINATION WITH CLINICALLY HIGH LEVELS OF CARDIOPROTECTIVE OR HEMODYNAMIC DRUGS” (THE GOVERNORS OF THE UNIVERSITY OF ALBERTA TEC Edmonton, priority 2002, published 2012).
# Columns and labels:
# isolated rat hearts [1] = assay: Isolated working rat heart, aerobic perfusion: cardiac function and efficiency; design: Cardiac Work (CO · PSP): unit not given beside the values
# Protocol: (§1) Rat hearts were cannulated for isolated working heart perfusions as described in “An imbalance between glycolysis and glucose oxidation is a possible explanation for the detrimental effects of high levels of fatty acids during aerobic reperfusion of ischemic hearts.”, (J Pharmacol Exp Ther. 264:135 (1993); herein incorporated by reference. In brief, male Sprague-Dawley rats (0.3-0.35 kg) were anesthetized with pentobarbital sodium (60 mg/kg IP) and hearts were quickly excised, the aorta was cannulated and a retrograde perfusion at 37° C. was initiated at a hydrostatic pressure of 60 mm Hg. Hearts were trimmed of excess tissue, and the pulmonary artery and the opening to the left atrium were then cannulated. After 15 min of Langendorff perfusion, hearts were switched to the working mode by clamping the aortic inflow line from the Langendorff reservoir and opening the left atrial inflow line. The perfusate was delivered from an oxygenator into the left atrium at a constant preload pressure of 11 mm Hg. Perfusate was ejected from spontaneously beating hearts into a compliance chamber (containing 1 ml of air) and into the aortic outflow line. The afterload was set at a hydrostatic pressure of 80 mm Hg. All working hearts were perfused with Krebs'-Henseleit solution containing calcium 2.5 mmol/L, glucose 5.5 mmol/L, 3% bovine serum albumin (Fraction V, Boehringer Mannheim), and with 1.2 mmol/L palmitate. Palmitate was bound to the albumin as described previously (Saddik M., et al. J Biol. Chem. 267:3825-3831 (1992)). The perfusate was recirculated, and pH was adjusted to 7.4 by bubbling with a mixture containing 95% O2 and 5% CO2. For the aerobic model hearts, all tested compounds were introduced into the heart 5 minutes into the working mode following Langendorff Perfusion.
# Spontaneously beating hearts were used in all perfusions. Heart rate and aortic pressure were measured with a Biopac Systems Inc. blood pressure transducer connected to the aortic outflow line. Cardiac output and aortic flow were measured with Transonic T206 ultrasonic flow probes in the preload and afterload lines, respectively. Coronary flow was calculated as the difference between cardiac output and aortic flow. The O2 contents of the perfusate entering and leaving the heart were measured using YSI™ micro oxygen electrodes placed in the preload and pulmonary arterial lines, respectively. Myocardial O2 consumption (MVO2) was calculated according to the Fick principle, using coronary flow rates and the arteriovenous difference in perfusate O2 concentration. Cardiac work was calculated as the product of systolic pressure and cardiac output. Cardiac efficiency was defined as a ratio of cardiac work to MVO2.
# isolated rat hearts [2] = assay: Isolated working rat heart, aerobic perfusion: glycolysis and glucose oxidation; design: glycolytic rates (glycolysis) / glucose oxidation rates: unit not given here; conditions: normal hearts, aerobic, DCA 2 mM, digoxin 3 nM, diltiazem 0.8 μM, dobutamine 1 μM, metoprolol 1 μM
# Protocol: as §1
# Glycolysis and glucose oxidation were measured simultaneously by perfusing hearts with [5-^3H/U-^14C] glucose (Liu H., et al. Am J Physiol. 270:H72-H80 (1996); Taegtmeyer Het al. Am J Cardiol. 80:3A-10A (1997)). The total myocardial ^3H2O production and ^14CO2 production were determined at 10 minute intervals for the entirety of the aerobic period, 60 minutes for normal hearts and 30 minutes for the global ischemia and low flow demand ischemia models. In the global ischemia model, the total myocardial ^3H2O and ^14CO2 production were determined at 20 minute intervals for the 60 minute reperfusion period. In the low flow demand ischemia model, the total myocardial ^3H2O and ^14CO2 production were determined at 10 minute intervals for the 30 minute reperfusion period. Glucose oxidation rates were determined by quantitative measurement of ^14CO2 production as described previously (Barbour R. L., et al. Biochemistr. 1923:6503-6062 (1984)).
# [3] = tested on: isolated rat hearts subjected to global ischemia; assay: Isolated working rat heart, global no flow ischemia and reperfusion: cardiac function and efficiency
# Protocol: Hearts were trimmed of excess tissue, and the pulmonary artery and the opening to the left atrium were then cannulated. After 15 min of Langendorff perfusion, hearts were switched to the working mode by clamping the aortic inflow line from the Langendorff reservoir and opening the left atrial inflow line. The perfusate was delivered from an oxygenator into the left atrium at a constant preload pressure of 11 mm Hg. […] The afterload was set at a hydrostatic pressure of 80 mm Hg. […] Palmitate was bound to the albumin as described previously ([…]., et al. J Biol. Chem. 267:3825-3831 (1992)). […] For the aerobic model hearts, all tested compounds were introduced into the heart 5 minutes into the working mode following Langendorff Perfusion. Spontaneously beating hearts were used in all perfusions. Heart rate and aortic pressure were measured with a Biopac Systems Inc. blood pressure transducer connected to the aortic outflow line. Cardiac output and aortic flow were measured with Transonic […] ultrasonic flow probes in the preload and afterload lines, respectively. Coronary flow was calculated as the difference between cardiac output and aortic flow. […] Cardiac work was calculated as the product of systolic pressure and cardiac output. Cardiac efficiency was defined as a ratio of cardiac work to MVO2. […] All tested compounds were introduced into the perfusate five minutes prior to reperfusion.
# [4] = tested on: isolated rat hearts subjected to global ischemia; assay: Isolated working rat heart, global ischemia and reperfusion: glycolysis and glucose oxidation; conditions: digoxin 3 nM, metoprolol 1 μM
# Protocol: Hearts were trimmed of excess tissue, and the pulmonary artery and the opening to the left atrium were then cannulated. After 15 min of Langendorff perfusion, hearts were switched to the working mode by clamping the aortic inflow line from the Langendorff reservoir and opening the left atrial inflow line. The perfusate was delivered from an oxygenator into the left atrium at a constant preload pressure of 11 mm Hg. […] The afterload was set at a hydrostatic pressure of 80 mm Hg. […] Palmitate was bound to the albumin as described previously ([…]., et al. J Biol. Chem. 267:3825-3831 (1992)). […] For the aerobic model hearts, all tested compounds were introduced into the heart 5 minutes into the working mode following Langendorff Perfusion. […] All tested compounds were introduced into the perfusate five minutes prior to reperfusion. […] Am J Physiol. 270:[…]. Am J Cardiol. 80:3A-10A (1997)). […] In the global ischemia model, the total myocardial ^3H2O and ^14CO2 production were determined at 20 minute intervals for the 60 minute reperfusion period. […] L., et al. Biochemistr. 1923:6503-6062 (1984)).
# [5] = aerobically perfused, DCA 2 mM, diltiazem 0.8 μM, digoxin 3 nM, metoprolol 1 μM, dobutamine 1 μM
# [6] = post-ischemic reperfusion, DCA 2 mM, digoxin 3 nM, metoprolol 1 μM
compound,measurement,setting,value
"COCCc1ccc(OCC(O)CNC(C)C)cc1 (centres unmarked) [Metoprolol, metoprolol]",Aortic Outflow,isolated rat hearts [1]; [5],35 ± 5 mL/min
same,Cardiac Efficiency (CW · O2^−1),isolated rat hearts [1]; [5],1.85 ± 0.15
same,Cardiac Output,isolated rat hearts [1]; [5],55 ± 8 mL/min
same,Cardiac Work (CO · PSP),isolated rat hearts [1]; [5],71 ± 10
same,Coronary Flow,isolated rat hearts [1]; [5],20 ± 3 mL/min
same,HR × PSP,isolated rat hearts [1]; [5],32 ± 4 beats · min^−1 · mmHg · 10^−2
same,Heart Rate,isolated rat hearts [1]; [5],250 ± 26 beats · min^−1
same,O2 Consumption,isolated rat hearts [1]; [5],40 ± 9 μmolO2 · g dry wt^−1 · min^−1
same,Peak Systolic Pressure,isolated rat hearts [1]; [5],130 ± 2 mmHg
same,"effect on functional parameters shown in Table 2 incl. O2 consumption and cardiac efficiency, in words","isolated rat hearts [1]; normal hearts, aerobic, compared to control",no significant effect
same,"effect on functional parameters shown in Table 1 (heart rate, peak systolic pressure, HR×PSP), in words","isolated rat hearts [1]; normal hearts, aerobic, compared to control (DCA and dobutamine: compared to dobutamine alone)",no significant effect
same,glucose oxidation rates,"isolated rat hearts [2]; FIG. 1, 3, 5, 7, control 361±43",651±222
same,glycolytic rates (glycolysis),"isolated rat hearts [2]; FIG. 2, 4, 6, 8, control 3.430±0.604",4.530±0.876
same,Aortic Outflow,[3]; [6],11 ± 5 mL/min
same,Cardiac Output,[3]; [6],24 ± 9 mL/min
same,Coronary Flow,[3]; [6],13 ± 4 mL/min
same,HR × PSP,[3]; [6],13 ± 6 beats · min^−1 · mmHg · 10^−2
same,Heart Rate,[3]; [6],185 ± 40 beats · min^−1
same,Peak Systolic Pressure,[3]; [6],73 ± 17 mmHg
same,"functional parameters (cardiac function, cardiac efficiency) during the reperfusion period compared to control (Table 1, Table 2), in words",[3]; reperfusion period,significantly improved
same,"recovery of cardiac function of previously ischemic hearts compared to control, in words","[3]; reperfusion period, FIG. 11, FIG. 17",does not change cardiac function
same,"recovery of cardiac work of previously ischemic hearts compared to control, in words","[3]; reperfusion period, FIG. 12, FIG. 18",significantly improve the recovery
same,"recovery of oxygen consumption of previously ischemic hearts, in words","[3]; reperfusion period, FIG. 13, FIG. 19",There does not appear to be significant differences
same,"recovery of cardiac efficiency of previously ischemic hearts compared to control, in words","[3]; reperfusion period, FIG. 14, FIG. 20",does not
same,"glycolytic rates as compared to control, in words","[4]; FIG. 10, FIG. 16, DCA 2 mM","neither DCA, metoprolol or metoprolol with DCA altered glycolytic rates"
same,"glucose oxidation rates, in words","[4]; reperfusion period, FIG. 9, FIG. 15, DCA 2 mM",no effect
